pIC50: −log10 of the molar value.

This note sets out measurements from BindingDB's records for doi:10.7270/Q2TB1590 (Nmmlsc, 2007).

The assay deals with T1, fMet-Leu-Phe receptor (Homo sapiens, UniProt P21462).
T1 sequence (P21462 whole entry): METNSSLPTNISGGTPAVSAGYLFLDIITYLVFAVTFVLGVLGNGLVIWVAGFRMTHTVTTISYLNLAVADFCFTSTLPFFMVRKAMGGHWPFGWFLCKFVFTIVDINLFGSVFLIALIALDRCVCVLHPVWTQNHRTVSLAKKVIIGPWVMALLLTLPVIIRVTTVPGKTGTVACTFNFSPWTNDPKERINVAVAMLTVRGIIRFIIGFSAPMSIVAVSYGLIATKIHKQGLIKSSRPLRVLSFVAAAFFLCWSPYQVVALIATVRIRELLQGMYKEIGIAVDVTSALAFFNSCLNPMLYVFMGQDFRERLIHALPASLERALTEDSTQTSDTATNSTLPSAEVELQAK
Nature of the assay: human FPR1 ligand displacement potency – cell-based, flow cytometry, Ki from IC50, dose response (AID 724). (In general: Flow cytometry measures light scatter and fluorescence of single cells or particles in a stream.)
One may read the pIC50 as −log10 of the IC50, conventionally taken in molar units. For `COc1ccc(C2C(C(=O)c3cccs3)C(=O)C(=O)N2CCN2CCOCC2)c(OC)c1` (stereo not given) [2-(2,4-dimethoxyphenyl)-1-(2-morpholin-4-ylethyl)-4-oxidanyl-3-thiophen-2-ylcarbonyl-2H-pyrrol-5-one], the pIC50 was 5.36.

`COc1ccc(C2C(C(=O)c3ccc(C)cc3)C(=O)C(=O)N2Cc2cccnc2)c(OC)c1` (stereo not given) [(4E)-5-(2,4-dimethoxyphenyl)-4-[(4-methylphenyl)-oxidanyl-methylidene]-1-(pyridin-3-ylmethyl)pyrrolidine-2,3-dione] had a pIC50 of 4.22. Compared with the last compound, the pIC50 is 1.14 log units lower.

In turn, `O=C1C(=O)N(CCc2ccccc2)C(c2ccc(Cl)cc2)C1C(=O)c1cccs1` (stereo not given) [2-(4-chlorophenyl)-4-hydroxy-1-(2-phenylethyl)-3-(thiophene-2-carbonyl)-2H-pyrrol-5-one] gave a pIC50 of 4.97. This pIC50 is 0.75 log units higher than that of the compound before.

The compound `CC(C)c1ccc(C2C(C(=O)c3ccccc3)C(=O)C(=O)N2Cc2cccnc2)cc1` (stereo not given) [(4E)-4-[hydroxy(phenyl)methylene]-5-p-cumenyl-1-(3-pyridylmethyl)pyrrolidine-2,3-quinone] gave a pIC50 of 4.29.

In turn, `COCCCN1C(=O)C(=O)C(C(=O)c2ccccc2)C1c1ccc(O)c(OC)c1` (stereo not given) [(4E)-5-(3-methoxy-4-oxidanyl-phenyl)-1-(3-methoxypropyl)-4-[oxidanyl(phenyl)methylidene]pyrrolidine-2,3-dione] gave a pIC50 of 4.30.

`COc1ccc(C2C(C(=O)c3ccccc3)C(=O)C(=O)N2CCCn2ccnc2)c(OC)c1` (stereo not given) [(4E)-5-(2,4-dimethoxyphenyl)-1-(3-imidazol-1-ylpropyl)-4-[oxidanyl(phenyl)methylidene]pyrrolidine-2,3-dione] showed a pIC50 of 5.28.

In the case of `COc1ccc(C2C(C(=O)c3ccco3)C(=O)C(=O)N2CCN2CCOCC2)c(OC)c1` (stereo not given) [5-(2,4-dimethoxyphenyl)-4-(furan-2-carbonyl)-3-hydroxy-1-(2-morpholinoethyl)-1H-pyrrol-2(5H)-one], the pIC50 was 5.01. This pIC50 lies 0.27 log units lower than the previous one.

`CC(=O)C1C(=O)C(=O)N(CCc2c(C)[nH]c3ccccc23)C1c1cccc(F)c1` (stereo not given) showed a pIC50 of 4.76.

Turning to `COc1ccc(OC)c(C2C(C(=O)c3ccccc3)C(=O)C(=O)N2c2ccc(C)c(Cl)c2)c1` (stereo not given) [(4E)-1-(3-chloranyl-4-methyl-phenyl)-5-(2,5-dimethoxyphenyl)-4-[oxidanyl(phenyl)methylidene]pyrrolidine-2,3-dione], the pIC50 was 4.59.

`COCCCN1C(=O)C(=O)C(C(=O)c2ccccc2)C1c1ccc(C(C)C)cc1` (stereo not given) [(4E)-1-(3-methoxypropyl)-4-[oxidanyl(phenyl)methylidene]-5-(4-propan-2-ylphenyl)pyrrolidine-2,3-dione] showed a pIC50 of 4.51.

As for `COc1ccc(C2C(C(=O)c3cccs3)C(=O)C(=O)N2CCCn2ccnc2)cc1` (stereo not given) [1-(3-imidazol-1-ylpropyl)-2-(4-methoxyphenyl)-4-oxidanyl-3-thiophen-2-ylcarbonyl-2H-pyrrol-5-one], the pIC50 is 5.15.

Turning to `COc1ccc(OC)c(C2C(C(=O)c3ccccc3)C(=O)C(=O)N2c2cccnc2)c1` (stereo not given) [(4E)-5-(2,5-dimethoxyphenyl)-4-[hydroxy(phenyl)methylene]-1-(3-pyridyl)pyrrolidine-2,3-quinone], the pIC50 is 5.04. This pIC50 and that of the compound before are within 0.2 log units of each other.

Take `COc1ccc(C2C(C(=O)c3ccccc3)C(=O)C(=O)N2c2cccc(Cl)c2)c(OC)c1` (stereo not given) [(4E)-1-(3-chlorophenyl)-5-(2,4-dimethoxyphenyl)-4-[hydroxy(phenyl)methylene]pyrrolidine-2,3-quinone]: the pIC50 was 4.32.

Take `CCCCCCN1C(=O)C(=O)C(C(=O)c2ccccc2)C1c1ccc(O)c(OC)c1` (stereo not given) [(4Z)-1-hexyl-5-(3-methoxy-4-oxidanyl-phenyl)-4-[oxidanyl(phenyl)methylidene]pyrrolidine-2,3-dione]: the pIC50 was 5.14.

`COCCN1C(=O)C(=O)C(C(=O)c2ccccc2)C1c1cc(OC)ccc1OC` (stereo not given) [(4E)-5-(2,5-dimethoxyphenyl)-1-(2-methoxyethyl)-4-[oxidanyl(phenyl)methylidene]pyrrolidine-2,3-dione]: the pIC50 is 5.55.
